Target: T1, Acetylcholinesterase (AChE) (Electrophorus electricus, UniProt O42275)
T1 construct: purchased Sigma Aldrich type VI-S
Test: In vitro anti-acetylcholinesterase assay (Ellman's method)
Format: biochemical
Settings: read-out: AChE Inhibition (IC50)
Source text: In vitro enzyme assay reagents were purchased as previously described. Acetylcholinesterase (AChE) from Electrophorus electricus type VI-S lyophilized powder (137 units/mg) was acquired from Sigma Aldrich (St. Louis, MO, USA). Substrate acetylthiocholine iodide (ATCl) and sodium phosphate monobasic and dibasic anhydrous used for buffer preparation were obtained from Wako Pure Chemical (Osaka, Japan). Coloring reagent 5,5′-dithio-bis-(2-nitrobenzoic acid) (DTNB) was acquired from Nacalai Tesque (Kyoto, Japan). […] All other reagents acquired from commercial sources were of analytical grade.
The plant fractions and isolated compounds were evaluated for their anti-AChE potential in triplicate based on the Ellman’s method described previously.

T1 sequence (O42275 24-633): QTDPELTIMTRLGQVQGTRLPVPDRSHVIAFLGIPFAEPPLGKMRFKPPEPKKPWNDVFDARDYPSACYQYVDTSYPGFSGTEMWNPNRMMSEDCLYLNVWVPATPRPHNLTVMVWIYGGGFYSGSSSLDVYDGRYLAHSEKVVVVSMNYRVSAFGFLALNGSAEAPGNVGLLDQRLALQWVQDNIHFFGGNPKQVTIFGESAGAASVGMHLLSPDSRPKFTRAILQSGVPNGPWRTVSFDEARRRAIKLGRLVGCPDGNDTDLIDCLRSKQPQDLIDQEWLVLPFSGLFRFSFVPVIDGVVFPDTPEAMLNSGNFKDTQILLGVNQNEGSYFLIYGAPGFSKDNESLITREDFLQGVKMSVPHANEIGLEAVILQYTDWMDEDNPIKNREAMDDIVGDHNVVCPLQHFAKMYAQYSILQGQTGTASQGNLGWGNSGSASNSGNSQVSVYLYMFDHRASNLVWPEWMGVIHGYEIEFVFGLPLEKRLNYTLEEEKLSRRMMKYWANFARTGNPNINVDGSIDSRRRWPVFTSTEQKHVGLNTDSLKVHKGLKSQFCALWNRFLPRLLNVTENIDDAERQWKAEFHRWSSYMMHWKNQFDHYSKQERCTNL

For `CC(C)=CCC/C(C)=C/Cc1c(C2CC(=O)c3c(O)cc(O)c(CC=C(C)C)c3O2)ccc(O)c1O` (centres unmarked) [Compound 1, solophenol A], the IC50 was 1 µM.

For `CC(C)=CCC/C(C)=C/Cc1c([C@@H]2CC(=O)c3c(O)cc(O)cc3O2)ccc(O)c1O` [Compound 2, nymphaeol B], the IC50 was 33 µM.

With `CC(C)=CCCC(C)=CCc1c(O)cc2c(c1O)C(=O)CC(c1cc(O)cc(O)c1)O2` (centres unmarked) [Compound 3, schizolaenone C] the IC50 was 6.8 µM.

`CC/C=C\C/C=C\C/C=C\CCCCCCCc1cccc(O)c1C(=O)O` [Compound 4, 6-heptadeca-8Z,11Z,14Z-trienyl salicylic acid] gave an IC50 of 2.4 µM.

`CCCC/C=C\C/C=C\CCCCCCCCc1cccc(O)c1C(=O)O` [Compound 5, 6-heptadeca-9Z,12Z-dienyl salicylic acid] was tested, and the IC50 was 0.54 µM.

— PMC9102781 (Molecules, 2022)
